In patent US6903130B1, “Pyrrolidineacetamide derivative alone or in combination for treatment of cns disorders” (UCB S.A., priority 1999, dated 2005):

How the values were obtained:
[1] = tested on: rats with hyperactivity induced by a mixture of dexamphetamine-chlordiazepoxide; assay: Y-maze test, DEX-CDP hyperactivity, levetiracetam and valproate alone or combined (Example 6); assay type: in vivo, rat; details: median (Q1-Q3)
From the text: The purpose of the present experiment was to study the effects of levetiracetam administered alone or in combination with valproate on the hyperactivity induced in rats by a mixture of dexamphetamine-chlordiazepoxide (DEX-CDP) evaluated in a Y-shaped maze apparatus, a test recognized as a model for mania. Increased motor activity is a frequent symptom of manic disorders and, therefore, is often used as a model of mania in laboratory animals. Lithium, a medicine approved by the FDA in the prophylaxis and the treatment of bipolar disorders and mania, and valproate, indicated for the treatment of manic episodes associated with bipolar disorders, have been shown active in this model of mania (Vale A. L. & Ratcliffe F., Psychopharmacol. (1987), 91, 352-355; Cao B. J. & Peng N. A., Eur. J. Pharmacol. (1993), 237, 177-181).
Hyperactivity was induced in male Sprague Dawley rats weighing 210-290 g (n 13 or 15 per group) by a mixture of dexamphetamine-chlordiazepoxide as described by Vale A. L. (Vale A. L. & Ratcliffe F., Psychopharmacol. (1987), 91, 352-355). […]
Each rat was placed in the center of the Y-maze (with each arm 40 cm long and 15 cm wide with 35 cm walls) constructed in gray plexiglas. The number of visits into the arms was recorded over a 5 minutes period as an index of activity.
The results were expressed as median with the first and third quartile. […]

[2] = tested on: rats in which hyperactivity has been induced using the DEX-CDP mixture; assay: Y maze test, hyperactivity induced by DEX-CDP mixture (Example 1); assay type: in vivo, rat; details: for Number of arms visited: median; for Effect on hyperactivity induced by DEX-CDP (in words): hyperactive rats; for Effect on hyperactivity induced by DEX-CDP (in words) / Effect of the compound per se on activity of non-hyperactive control (in words): i.p.; for Effect of the compound per se on activity of non-hyperactive control (in words): non-hyperactive control rats
From the text: An increase in motor activity is a frequent symptom of manic disorders and as a consequence, it is often used as a model of mania in laboratory animals. […] Further, not all activity tests are suitable for observing reproducible hyperactivity.
Hyperactivity induced in rodents tested in a symmetrical v maze by a mixture of dexamphetamine and chlordiazepoxide (DEX-CDP) has been used by a number of researchers to study the effect of lithium (Cox C. et al., “Lithium attenuates “manic” activity in rats” Nature (1971), vol. 232 p 336-338—Vale A. L. and Ratcliffe F., “Effect of lithium administration on rat brain 5-hydroxyindole levels in a possible animal model of mania” Psychopharamacol. (1987), vol.91 p 352-355), or more recently the effect of the antiepiteptic “Valproate” (Cao B. J. and Peng N. A., “Magnesium valproate attenuates hyperactivity induced by dexamphetamine-chlordiazepoxide mixture in rodents” Eur. J. Pharmacol. (1993), vol. 237, p 177-181).
Lithium and valproate were also tested and used as reference compounds.
The animals used were male Sprague-Dawley rats (origin: OFA, IFFA CREDO, Belgium) weighing between 210 and 290 grams. They were placed in stainless steel cages in groups of 8. The day prior to the experiment, they were placed in macrolon cages (4 animals per cage: 38×27×15 centimeters (cm)) with the floor covered with sawdust. The cages were placed in an animal holding chamber provided with air conditioning, illuminated from 0600 hrs to 1800 hrs. Food and water were available “ad libitum”.
The apparatus used was a Y maze (each arm being 40 cm long and 15 cm wide with 35 cm walls) constructed from grey Plexiglass, located in a faintly illuminated room (Less than 5 Lux at ground level) and used to measure the rats' activity. The activity was estimated by recording the number of entries into the arms of the maze over a five-minute period. A video camera was positioned at a height of one meter above the apparatus and connected to a monitor located in an adjacent room in which an experimenter counted the number of entries into the arms.
The injection of different compounds into the rats was performed under the following conditions. 12.5 mg/kg of chlordiazepoxide and 1.18 mg/kg of D-amphetamine sulfate were dissolved in a saline solution (0.9%) and administered simultaneously by subcutaneous injection 35 minutes before the test in a volume of 1 ml/kg. 17 and 54 mg/kg of levetiracetam were dissolved in a saline aqueous solution (0.9%) and injected intraperitoneally 30 minutes before the test (table 4). 50, 100 and 200 mg/kg of sodium valproate were dissolved in an aqueous saline solution (0.9%) and injected intraperitoneally 15 minutes before the test (table 2). 2 and 4 milliequivalents (meq) of […] of lithium chloride were dissolved in a saline solution (0.9%) and injected intraperitoneally 215 minutes before the test (table 1). The test drugs were injected in a volume of 5 ml/kg.
The effects of the different drugs were studied separately. In each experiment, the animals were placed in different groups ([…]) in a random fashion. During the test, each rat was placed in the center of the apparatus and the number of visits into the arms was recorded as an activity index.
For the results to be properly statistically analyzed, they were expressed as median with the first and third quartile. General comparisons of the statistics were carried out using a Kruskal-Wallis test for the controls and the effect of the compound per se. This test was also used to compare the effect of the (DEX-CDP) mixture, and the effect of the compounds against the hyperactivity induced by the (DEX-CDP) mixture.

amygdala-kindled rats = assay: Rotarod test in amygdala-kindled rats
Procedure: Levetiracetam and valproate, in a dose-volume of 5 ml/kg body weight, were administered intraperitoneally 60 and 30 minutes, respectively, before the induction of kindling or the measurement of rotarod performance. Levetiracetam ([…]) and sodium valproate (50, 100, 150, 200 and 300 mg/kg) were both dissolved in 0.9% NaCl to give solutions of pH 5.9 and 6.3, respectively. Control rats received an equivalent dose-volume of the appropriate vehicle.
The amygdala-kindled rats (n=8) were also tested on a rotating rod. The animals were pretreated with i.p. administrations of levetiracetam and valproate 60 and 30 minutes, respectively, before testing, Only animals that were unable to remain on the rod after three subsequent 1-minute attempts were considered as having an impaired performance. Results were analyzed as described in example 1.

| SMILES | Number of arms visited ([1]; levetiracetam 17 mg/kg i.p. + DEX-CDP mixture) | Number of arms visited ([2]; DEX-CDP mixture + levetiracetam 17 mg/kg i.p.) | Number of arms visited ([2]; DEX-CDP mixture + levetiracetam 54 mg/kg i.p.) | Effect on hyperactivity induced by DEX-CDP (in words) [2] | Effect on hyperactivity induced by DEX-CDP (in words) ([2]; listed as levetiracetam) | Number of arms visited ([2]; levetiracetam 17 mg/kg i.p. alone, no mixture) | Number of arms visited ([2]; levetiracetam 54 mg/kg i.p. alone, no mixture) | Effect of the compound per se on activity of non-hyperactive control (in words) [2] | impairment of rotarod performance (in words) (amygdala-kindled rats; levetiracetam alone 108, 170 and 540 mg/kg i.p.) | Number of arms visited ([1]; valproate 150 mg/kg i.p. + DEX-CDP mixture) | Number of arms visited ([2]; DEX-CDP mixture + sodium valproate 50 mg/kg i.p.) | Number of arms visited ([2]; DEX-CDP mixture + sodium valproate 100 mg/kg i.p.) | Number of arms visited ([2]; DEX-CDP mixture + sodium valproate 200 mg/kg i.p.) | Number of arms visited ([2]; sodium valproate 50 mg/kg i.p. alone, no mixture) | Number of arms visited ([2]; sodium valproate 100 mg/kg i.p. alone, no mixture) | Number of arms visited ([2]; sodium valproate 200 mg/kg i.p. alone, no mixture) | Impairment in the performance within the rotarod test (amygdala-kindled rats; valproate 197 mg/kg + saline (treatment protecting 50% of the rats)) [%] |
| --- | --- | --- | --- | --- | --- | --- | --- | --- | --- | --- | --- | --- | --- | --- | --- | --- | --- |
| CC[C@@H](C(N)=O)N1CCCC1=O [Levetiracetam, (S)-(−)α-ethyl-2-oxo-1-pyrrolidineacetamide] | 46 (41-49) | 36 | 26 | significantly counteracted the hyperactivity induced by DEX-CDP at a dose of 54 mg/kg | normalization to the activity level of the non-hyperactive control rats | 31 | 28 | only a slight hyperactivity at a dose of 17 mg/kg | None of the three doses of levetiracetam tested (108, 170 and 540 mg/kg) impaired the performance |  |  |  |  |  |  |  |  |
| CCCC(CCC)C(=O)[O-].[Na+] [Valproate, sodium valproate] |  |  |  | significantly counteracted hyperactivity at a dose of 200 mg/kg |  |  |  | strong dose dependent hyperactivity |  | 41 (18-49) | 38 | 39 | 20 | 28 | 34 | 40 | 46 |
